Laboratory results taken from patent US20240148821A1, “PHARMACEUTICAL USE OF CYCLIC PEPTIDE COMPOUND” (CHUGAI SEIYAKU KABUSHIKI KAISHA, priority 2021, published 2024).
Numbered stars: 1 amine (or outer) side, 2 acyl side, 3 side chain; on linkers, the order of the positions; unused ones are H or OH. Bridge positions count the residues as written; N and C are the ends. Square brackets hold non-standard residues; d marks the D form. Peptide text beside a SMILES is read from it. * marks the point of attachment. hPhe(3,5-F2-4-CF3) = N[C@@H](CCc1cc(F)c(C(F)(F)F)c(F)c1)C(=O)O; hPhe(3-Cl-4-CF3) = N[C@@H](CCc1ccc(C(F)(F)F)c(Cl)c1)C(=O)O; hPhe(3-F,4-CF3) = N[C@@H](CCc1ccc(C(F)(F)F)c(F)c1)C(=O)O; NMePhe(4-CF3) = CN[C@@H](Cc1ccc(C(F)(F)F)cc1)C(=O)O; NMePhe(4-Cl) = CN[C@@H](Cc1ccc(Cl)cc1)C(=O)O; NMePhe(4-Me) = CN[C@@H](Cc1ccc(C)cc1)C(=O)O; NMedβ3hAla = C[C@H](CC(=O)[*:2])N(C)[*:1]; NMeGly(cPent) = CN[C@H](C(=O)O)C1CCCC1; NMeCha = CN[C@@H](CC1CCCCC1)C(=O)O; Ala(cPr) = N[C@@H](CC1CC1)C(=O)O; Hyp = O=C(O)[C@@H]1C[C@@H](O)CN1; NMeAhp(2) = CCCCC[C@H](NC)C(=O)O; NMeI = CC[C@H](C)[C@H](NC)C(=O)O; NMeD = CN[C@@H](CC(=O)O)C(=O)O; NMeL = CN[C@@H](CC(C)C)C(=O)O; NMeV = CN[C@H](C(=O)O)C(C)C; Morpholide = C1CN(*)CCO1; NMeA = CN[C@@H](C)C(=O)O; NMeAib = CNC(C)(C)C(=O)O; Piperidide = C1CCN(*)CC1; Ac5c = NC1(C(=O)O)CCCC1; Aze = O=C(O)[C@@H]1CCN1; Sar = CNCC(=O)O

Key:
[1] = biological target: protein-protein interaction between Kras and SOS1 (biotin-tagged human Kras loaded with GDP, His-tagged human SOS1) (Homo sapiens (Human), UniProt P01116, G12D); assay: Protein-protein interaction inhibition between Kras and SOS1 (KrasG12D-SOS PPI) using AlphaScreen; type: biochemical; conditions: AlphaScreen; biotin-tagged human Kras loaded with GDP, His-tagged human SOS1; read-out: KRAS G12D-SOS PPI IC50;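 further: kras produced in E. coli, Ni-coupled donor beads and streptavidin acceptor beads, excitation 680 nm with emission detected at 520–620 nm via singlet oxygen transfer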
[2] = test system: Human pancreatic cancer cell line AsPC-1 (G12D mutation Kras); assay: AsPC-1 cell growth inhibition (AsPC-1 CGI); type: cell-based; conditions: read-out: AsPC-1 cell growth inhibition, 50% growth inhibitory concentration (IC50 value); 96 hours, CellTiter-Glo, values classified in ranges
Procedure: Test compounds were serially dilated with dimethyl sulfoxide, and 200 nL was then dispensed to a U-bottom 96-well plate using Labcyte Echo. […] The cell suspension was dispensed to a. plate containing a test compound at 100 μL per well and incubated at 37° C. in a 5% carbon dioxide gas incubator. 96 hours later, 80 μL of CellTiter-Glo (Promega) was added to each well and fluorescence was measured.

Compound | IC50 [1] [nM] | IC50 [2] [nM]
CC[C@H](C)[C@@H]1NC(=O)[C@H](CC(C)C)N(C)C(=O)C[C@@H](C(=O)N2CCCCC2)N(C)C(=O)[C@H](C(C)C)N(C)C(=O)C2(CCCC2)NC(=O)[C@@H]2CCCN2C(=O)[C@H](CCc2ccc(C(F)(F)F)c(Cl)c2)NC(=O)CN(C)C(=O)[C@H](CC2CCCCC2)N(C)C(=O)[C@@H]2CCN2C(=O)[C@@H]2CCN2C1=O [Compound 318] ([NMeL]I[Aze][Aze][NMeCha][Sar][hPhe(3-Cl-4-CF3)]P[Ac5c][NMeV][NMeD]-Piperidide; lactam N-11) | 19 | > 500
CC[C@H](C)[C@@H]1NC(=O)[C@H](CC(C)C)N(C)C(=O)C[C@@H](C)N(C)C(=O)[C@H](CC(C)C)NC(=O)C(C)(C)N(C)C(=O)[C@H]([C@@H](C)CC)NC(=O)[C@H](CCc2ccc(C(F)(F)F)c(F)c2)NC(=O)CN(C)C(=O)[C@H](Cc2ccc(Cl)cc2)N(C)C(=O)CN(C)C(=O)CN(C)C1=O [Compound 332] (cyclo(I[NMeAib]L[NMedβ3hAla][NMeL]I[Sar][Sar][NMePhe(4-Cl)][Sar][hPhe(3-F,4-CF3)])) | 210 | > 500
CC[C@H](C)[C@@H]1NC(=O)[C@H](CC(C)C)N(C)C(=O)C[C@@H](C(=O)N(C)C)N(C)C(=O)[C@H](C2CCCC2)N(C)C(=O)C2(CCCC2)NC(=O)[C@@H]2CCCN2C(=O)[C@H](CCc2ccc(C(F)(F)F)c(F)c2)NC(=O)CN(C)C(=O)[C@H](CC2CCCCC2)N(C)C(=O)[C@@H]2CCN2C(=O)[C@H](C)N(C)C1=O [Compound 334] ([NMeL]I[NMeA][Aze][NMeCha][Sar][hPhe(3-F,4-CF3)]P[Ac5c][NMeGly(cPent)][NMeD]-NMe2; lactam N-11) | 0.5 | ≤ 20
CCCCC[C@H]1C(=O)N[C@@H]([C@@H](C)CC)C(=O)N[C@@H](C)C(=O)N2CC[C@H]2C(=O)N(C)[C@@H](Cc2ccc(C)cc2)C(=O)N(C)CC(=O)N[C@@H](CCc2ccc(C(F)(F)F)c(Cl)c2)C(=O)N2CCC[C@H]2C(=O)NC2(CCCC2)C(=O)N(C)[C@@H]([C@@H](C)CC)C(=O)N(C)[C@H](C(=O)N(C)C)CC(=O)N1C [Compound 342] ([NMeAhp(2)]IA[Aze][NMePhe(4-Me)][Sar][hPhe(3-Cl-4-CF3)]P[Ac5c][NMeI][NMeD]-NMe2; lactam N-11) | 0.95 | ≤ 20
CCCCC[C@H]1C(=O)N[C@@H]([C@@H](C)CC)C(=O)N(C)[C@@H](C)C(=O)N2CC[C@H]2C(=O)N(C)[C@@H](C2CCCC2)C(=O)N(C)CC(=O)N[C@@H](CCc2ccc(C(F)(F)F)c(Cl)c2)C(=O)N2CCC[C@H]2C(=O)NC2(CCCC2)C(=O)N(C)[C@@H](C2CCCC2)C(=O)N(C)[C@H](C(=O)N2CCOCC2)CC(=O)N1C [Compound 343] ([NMeAhp(2)]I[NMeA][Aze][NMeGly(cPent)][Sar][hPhe(3-Cl-4-CF3)]P[Ac5c][NMeGly(cPent)][NMeD]-Morpholide; lactam N-11) | 0.87 | ≤ 20
CCO[C@@H]1C[C@H]2C(=O)NC3(CCCC3)C(=O)N(C)[C@@H](C3CCCC3)C(=O)N(C)[C@H](C)CC(=O)N(C)[C@@H](CC(C)C)C(=O)N[C@@H]([C@@H](C)CC)C(=O)N(C)[C@@H](C)C(=O)N3CC[C@H]3C(=O)N(C)[C@@H](Cc3ccc(C(F)(F)F)cc3)C(=O)N(C)CC(=O)N[C@@H](CCc3cc(F)c(C(F)(F)F)c(F)c3)C(=O)N2C1 [Compound 344] (cyclo([Ac5c][NMeGly(cPent)][NMedβ3hAla][NMeL]I[NMeA][Aze][NMePhe(4-CF3)][Sar][hPhe(3,5-F2-4-CF3)][Hyp](Et))) | 0.83 | ≤ 20
CC[C@H](C)[C@@H]1NC(=O)[C@H](C)N(C)C(=O)C[C@@H](C(=O)N2CCCCC2)N(C)C(=O)[C@H](C(C)C)N(C)C(=O)C2(CCCC2)NC(=O)[C@H](Cc2ccc(C)cc2)N(C)C(=O)[C@H](CCc2ccc(C(F)(F)F)c(Cl)c2)NC(=O)CN(C)C(=O)[C@H](CC2CCCCC2)N(C)C(=O)CN(C)C(=O)CN(C)C1=O [Compound 346] ([NMeA]I[Sar][Sar][NMeCha][Sar][hPhe(3-Cl-4-CF3)][NMePhe(4-Me)][Ac5c][NMeV][NMeD]-Piperidide; lactam N-11) | 11 | > 500
CC(C)C[C@H]1C(=O)N[C@@H](CC2CC2)C(=O)N(C)[C@@H](C)C(=O)N2CC[C@H]2C(=O)N(C)[C@@H](CC2CCCCC2)C(=O)N(C)CC(=O)N[C@@H](CCc2ccc(C(F)(F)F)c(Cl)c2)C(=O)N2CCC[C@H]2C(=O)NC2(CCCC2)C(=O)N(C)[C@@H](C(C)C)C(=O)N(C)[C@H](C(=O)N2CCCCC2)CC(=O)N1C [Compound 358] ([NMeL][Ala(cPr)][NMeA][Aze][NMeCha][Sar][hPhe(3-Cl-4-CF3)]P[Ac5c][NMeV][NMeD]-Piperidide; lactam N-11) | 33 | > 500
CCO[C@@H]1C[C@H]2C(=O)NC3(CCCC3)C(=O)N(C)[C@@H]([C@@H](C)CC)C(=O)N(C)[C@H](C)CC(=O)N(C)[C@@H](CC(C)C)C(=O)N[C@@H]([C@@H](C)CC)C(=O)N(C)[C@@H](C)C(=O)N3CC[C@H]3C(=O)N(C)[C@@H](Cc3ccc(C(F)(F)F)cc3)C(=O)N(C)CC(=O)N[C@@H](CCc3cc(F)c(C(F)(F)F)c(F)c3)C(=O)N2C1 [Compound 362] (cyclo([Ac5c][NMeI][NMedβ3hAla][NMeL]I[NMeA][Aze][NMePhe(4-CF3)][Sar][hPhe(3,5-F2-4-CF3)][Hyp](Et))) | 0.66 | ≤ 20
